Data set [1] in a line: Acute toxicity by oral route in mice (LD50). In kind it is in vivo. The settings on record: mouse, in vivo, gummy suspension. The protocol:
(§1) The study of the acute toxicity of the stabilizers listed below was carried out by determining the dose of substance which provoked the death of 50% of the treated animals (LD50). A gummy suspension of the substance under study was administered by oral route to groups of at least ten mice and the following results were observed: […]

Data set [2] relates to mice. Briefly: Acute toxicity by oral route in mice (LD50). The following applies: LD50 study. In kind it is in vivo. The protocol:
as §1

A short description of data set [3]: Static thermostability of stabilized resin, simplified method (GARDNER sub-scale), Compound A. The settings on record: 210° C. The protocol: (§2) The stabilizing power of the substances of the invention was studied from two points of view:
(§3) These studies were performed with six different formulae of vinyl resins (hereinafter referred to as Compounds).
(§4) The different compounds were mixed and calendered in a mixer of which the cylinders were heated to 160° C. The rigid sheets so obtained were then heated in an oven to a temperature between 180° C and 215° C, until incipient carbonization.
(§5) A stove with rotating drums, ventilated and equipped with a thermostat was used for this operation. In the trials described hereunder, the behaviour of a sheet containing the stabilizer to be tested was compared to that of a sheet of the same formula but containing 2-phenyl-indole as stabilizer.
(§6) 2. It is also possible to use a simplified method which is more rapid and with which valid results are also obtained: a reference scale is drawn up with sheets of thermally treated polyvinyl chloride, of which the colourations have been definitely determined in GARDNER degrees as above. A GARDNER sub-scale is thus obtained in polyvinyl chloride sheets which can be directly compared to the sheets to be tested without using the comparator.
Finally, trials were carried out with Stabilizers 15, 16 and 17 and with 2-phenyl-indole. Compound A was used and the temperature was 210° C.

Data set [4] in a line: Static thermostability of stabilized resin, simplified method (GARDNER sub-scale), Compound D. The settings on record: 185° C. The protocol: as §2, §3, §4, §5, §6
Data set [5] in a line: Static thermostability of stabilized resin, simplified method (GARDNER sub-scale), Compound E. The settings on record: 185° C. The protocol:
as §2, §3, §4, §5, §6

For data set [6], the system named is mice. In kind it is in vivo. The protocol:
as §1

Data set [7] in a line: Extractibility of the stabilizer from Compound A containing Stabilizer 16. The protocol: This study was carried out in accordance with the requirements of the Food and Drug Administration (U.S.A.).
The extractions were performed in semi-rigid bottles, prepared with Compounds Nos. 609 and 675, and with the following solvents: water, an aqueous solution of acetic acid (3%), ethanol-water 50/50, heptane.
The ratio of the volume of solvent to the surface of plastic material exposed to extraction was about 1 cm^2 to […] of solvent, taking into account the geometric characteristics of the bottles.
The quantity of stabilizer extracted was determined by colorimetric assay using p-dimethylaminobenzaldehyde, in accordance with the method described in Analytical Chemistry 36, 425-26 (1964).
The amounts of stabilizer assayed are expressed in μg per liter of extraction solvent or, which is the same, per 1000 cm^2 of surface submitted to extraction.
The same trials were carried out with Compound A containing 2-(4'-dodecylthio-phenyl)-indole (Stabilizer 16) as stabilizer and the following results were obtained: […]

Read-outs that look alike come from different tables or passages of the source.

The source of these data is patent US4057530A, “2-Phenyl-indole derivatives and process for preparing the same” (priority 1974, dated 1977).

`CSc1ccc(-c2cc3ccccc3[nH]2)cc1` [Stabilizer 3, 2-(4'-methylthio-phenyl)-indole]: in data set [1], the LD50 (usually the dose expected to kill half of the subjects tested) was > 3000 mg/kg. In addition, the Toxic symptoms entry in data set [2] is given as “none”. In addition, the “Static thermostability compared with 2-phenyl-indole” value in data set [3] is “markedly superior to 2-phenyl-indole”. For the same molecule, the “Colouration of sheet (GARDNER sub-scale)” value is 1 GARDNER degrees in data set [3] (0 min); 1 GARDNER degrees in data set [3] (3 min); 2 GARDNER degrees in data set [3] (6 min); 3 GARDNER degrees in data set [3] (9 min); 8 GARDNER degrees in data set [3] (12 min); 10 GARDNER degrees in data set [3] (15 min).
With `CCOC(=O)C(C)(C)Oc1ccc(-c2cc3ccccc3[nH]2)cc1` [Stabilizer 5, 2-(4'-carbethoxyisopropyloxy-phenyl)-indole], in data set [1], the LD50 is > 3000 mg/kg. Also, the Toxic symptoms result in data set [2] is “none”. The “Static thermostability compared with 2-phenyl-indole” value in data set [3] is recorded as “markedly superior to 2-phenyl-indole”.
Turning to `CCCCC(CC)COc1ccc(-c2cc3ccccc3[nH]2)cc1` (stereo not drawn) [Stabilizer 7, 2-(2"-ethyl-4'-hexyloxy-phenyl)-indole], the LD50 in data set [1] was > 2000 mg/kg. In addition, the Toxic symptoms entry in data set [2] is recorded as “none”. Also, in data set [4], the “Colouration given to the co-polymer” value was “less yellow with Stabilizer 7 than with 2-phenyl-indole”. In addition, the “Static thermostability compared with 2-phenyl-indole” value in data set [4] is reported as “markedly superior to 2-phenyl-indole”. In addition, the “Colouration of sheet (GARDNER sub-scale)” value in data set [4] (0 min) was < 1 GARDNER degrees; in data set [4] (10 min), < 2 GARDNER degrees; in data set [4] (20 min), 2 GARDNER degrees; in data set [4] (30 min), < 3 GARDNER degrees; in data set [5] (0 min), < 1 GARDNER degrees; in data set [5] (10 min) it was < 1 GARDNER degrees. Moreover, the “Colouration of sheet (GARDNER sub-scale)” value in data set [5] (20 min) is listed as < 2 GARDNER degrees; in data set [5] (30 min), < 3 GARDNER degrees.
Turning to `CCCCSc1ccc(-c2cc3ccccc3[nH]2)cc1` [Stabilizer 15, 2-(4'-butylthio-phenyl)-indole], in data set [6] (mouse, in vivo, po), the “LDO (maximal dose which does not provoke any death)” value is given as > 3000 mg/kg. For the same molecule, the Toxic symptoms entry in data set [6] (oral, mice, LDO study) is reported as “none”. Further, the “Static thermostability compared with 2-phenyl-indole” value in data set [3] is “very rapidly found to be superior to 2-phenyl-indole”. The “Colouration of sheet (GARDNER sub-scale)” value was determined as 1 GARDNER degrees in data set [3] (0 min); 1 GARDNER degrees in data set [3] (3 min); 2 GARDNER degrees in data set [3] (6 min); 5 GARDNER degrees in data set [3] (9 min); 10 GARDNER degrees in data set [3] (12 min); 13 GARDNER degrees in data set [3] (15 min). Moreover, in data set [3] (18 min), the “Colouration of sheet (GARDNER sub-scale)” value was “burnt”.
With `CCCCCCCCCCCCSc1ccc(-c2cc3ccccc3[nH]2)cc1` [Stabilizer 16, 2-(4'-n-dodecylthio-phenyl)-indole], the “LDO (maximal dose which does not provoke any death)” value in data set [6] (mouse, in vivo, po) was > 3000 mg/kg. The Toxic symptoms result in data set [6] (mouse, in vivo, po) is on record as “none”. In addition, the “Static thermostability compared with 2-phenyl-indole” value in data set [3] was “very rapidly found to be superior to 2-phenyl-indole”. Moreover, the “Colouration of sheet (GARDNER sub-scale)” value is reported as 1 GARDNER degrees in data set [3] (0 min); 1 GARDNER degrees in data set [3] (3 min); 2 GARDNER degrees in data set [3] (6 min); 5 GARDNER degrees in data set [3] (9 min); 10 GARDNER degrees in data set [3] (12 min); 13 GARDNER degrees in data set [3] (15 min). Moreover, the “Colouration of sheet (GARDNER sub-scale)” value in data set [3] (18 min) is listed as “burnt”. Moreover, the “Amount of stabilizer extracted” value is given as < 3 μg per liter in data set [7] (3% aqueous acetic acid, 20 days); < 10 μg per liter in data set [7] (aqueous ethanol 50/50, 9 days); 175 μg per liter in data set [7] (heptane, 48 hours); < 3 μg per liter in data set [7] (water, 10 days).
Regarding `Oc1ccc(-c2cc3ccccc3[nH]2)cc1` [Stabilizer 20, 2-(4'-hydroxy-phenyl)-indole], the 50% lethal dose (LD50) in data set [1] is > 3000 mg/kg. Also, the Toxic symptoms result in data set [2] is listed as “none”. Besides, in data set [3], the “Static thermostability compared with 2-phenyl-indole” value is on record as “markedly superior to 2-phenyl-indole”. Also, the “Colouration of sheet (GARDNER sub-scale)” value in data set [3] (0 min) is 1 GARDNER degrees; in data set [3] (3 min), 1 GARDNER degrees; in data set [3] (6 min), 2 GARDNER degrees; in data set [3] (9 min) it was 4 GARDNER degrees; in data set [3] (12 min), 9 GARDNER degrees; in data set [3] (15 min), 11 GARDNER degrees.
For the molecule `Nc1ccccc1-c1cc2ccccc2[nH]1` [Stabilizer 23, 2-(2'-amino-phenyl)-indole], the LD50 in data set [1] is > 2000 mg/kg. Besides, the Toxic symptoms result in data set [2] is recorded as “none”. Moreover, in data set [3], the “Static thermostability compared with 2-phenyl-indole” value is “superior to 2-phenyl-indole”. In addition, the “Colouration of sheet (GARDNER sub-scale)” value in data set [3] (0 min) is “pink”; in data set [3] (3 min), “pink”; in data set [3] (6 min), “pink”; in data set [3] (9 min) it was 4 GARDNER degrees; in data set [3] (12 min) it was 6 GARDNER degrees; in data set [3] (15 min), 12 GARDNER degrees.
